“Also recorded” adds a separate entry of the source.
Test system: AML 052308 cells
Experiment: Antileukemic activity against AML 052308 cells in culture
Details: not given

SMILES	EC50 [µM]
C=C1C(=O)OC2C1CC/C(CO)=C\CCC1(C)OC21 (stereo not drawn) [MMB, Melampomagnolide B]	16

Test system: M9 ENL cells
Experiment: cells
Details: 24 h
Protocol: Carbamate and carbonate derivatives of MMB were also screened for activity against M9 ENL cells at concentrations of 5, 10 and 20 μM (FIG. 10). […] Additionally, succinic amide derivatives of MMB were screened for activity against M9 ENL cells at concentrations of 5, 10 and 20 μM (FIG. 11).
Ester and amide derivatives of melampomagnolide B were screened for anti-leukemic activity against M9ENL AML cell lines (FIG. 12; FIG. 14; FIG. 15; FIG. 16). For each compound, in vitro cell culture studies were performed in which a range of concentrations (0.25-20 μM) was tested for cytotoxicity against leukemia cell lines, primary leukemia specimens and normal bone marrow controls.

SMILES	EC50 [µM]
C=C1C(=O)O[C@H]2[C@H]1CC/C(COC(=O)c1cc(OC)c(OC)c(OC)c1)=C\CC[C@@]1(C)O[C@@H]21 [JVM 3-22]	4.7
C=C1C(=O)O[C@H]2[C@H]1CC/C(COC(=O)c1ccc(Br)cc1)=C\CC[C@@]1(C)O[C@@H]21 [JVM 3-30]	3.3
C=C1C(=O)O[C@H]2[C@H]1CC/C(COC(=O)c1ccc3ccccc3c1)=C\CC[C@@]1(C)O[C@@H]21 [JVM 3-36, ((1aR,7aS,10aS,10bS,E)-1a-methyl-8-methylene-9-oxo-1a,2,3,6,7,7a,8,9,10a,10b-decahydrooxireno[2′,3′:9,10]cycodeca[1,2-b]furan-5-yl)methyl 2-naphthoate]	1.7
C=C1C(=O)O[C@H]2[C@H]1CC/C(COC(=O)c1cccc3ccccc13)=C\CC[C@@]1(C)O[C@@H]21 [JVM 3-38]	2.9
C=C1C(=O)O[C@H]2[C@H]1CC/C(COC(=O)c1ccc(C#N)cc1)=C\CC[C@@]1(C)O[C@@H]21 [JVM 3-39]	11
C=C1C(=O)O[C@H]2[C@H]1CC/C(COC(=O)c1ccc(Cl)cc1)=C\CC[C@@]1(C)O[C@@H]21 [JVM 3-41]	13
C=C1C(=O)O[C@H]2[C@H]1CC/C(COC(=O)c1ccc(OC)cc1OC)=C\CC[C@@]1(C)O[C@@H]21 [JVM 3-44]	3.5
C=C1C(=O)O[C@H]2[C@H]1CC/C(C(=O)N1CCN(C)CC1)=C\CC[C@@]1(C)O[C@@H]21 [JVM 3-46]	28
C=C1C(=O)O[C@H]2[C@H]1CC/C(C(=O)N1CCC(F)(F)CC1)=C\CC[C@@]1(C)O[C@@H]21 [JVM 3-50]	3.5
C=C1C(=O)O[C@H]2[C@H]1CC/C(C(=O)N1CCC(C)CC1)=C\CC[C@@]1(C)O[C@@H]21 [JVM 3-51]	12
C=C1C(=O)O[C@H]2[C@H]1CC/C(C(=O)N1CCCCC1)=C\CC[C@@]1(C)O[C@@H]21 [JVM 3-52]	8.3
C=C1C(=O)O[C@H]2[C@H]1CC/C(C(=O)Nc1n[nH]c(SC)n1)=C\CC[C@@]1(C)O[C@@H]21 [JVM 3-53, (1aR,7aS,10aS,10bS,E)-1a-methyl-8-methylene-N-(5-(methylthio)-1H-1,2,4-triazol-3-yl)-9-oxo-1a,2,3,6,7,7a,8,9,10a,10b-decahydrooxireno[2′,3′:9,10]cyclodeca[1,2-b]furan-5-carboxamide]	0.016
C=C1C(=O)O[C@H]2[C@H]1CC/C(C(=O)n1ccnc1C)=C\CC[C@@]1(C)O[C@@H]21 [JVM 3-57]	5.9

Test system: M9 ENL cells
Experiment: not given
Details: M9ENL AML cell lines; 24 hours of drug exposure

SMILES	EC50 [µM]
C=C1C(=O)O[C@H]2[C@H]1CC/C(COC(=O)c1cc3cc(OC)ccc3[nH]1)=C\CC[C@@]1(C)O[C@@H]21 [BS-2-01]	2.2
C=C1C(=O)O[C@H]2[C@H]1CC/C(COC(=O)c1ccc(Cl)nc1)=C\CC[C@@]1(C)O[C@@H]21 [JVM 340]	11

Same assay, conditions: M9 ENL cells; lowest concentration tested (5, 10 and 20 μM tested)

SMILES	Reduction of cell viability
C=C1C(=O)O[C@H]2[C@H]1CC/C(COC(=O)OCCN1CCCC1)=C\CC[C@@]1(C)O[C@@H]21 [JVM 2-59]	greater than 50%
C=C1C(=O)O[C@H]2[C@H]1CC/C(COC(=O)OCCN1CCOCC1)=C\CC[C@@]1(C)O[C@@H]21 [JVM 2-60]	greater than 50%
C=C1C(=O)O[C@H]2[C@H]1CC/C(COC(=O)N1CCC(F)(F)CC1)=C\CC[C@@]1(C)O[C@@H]21 [JVM 2-66]	greater than 50%
C=C1C(=O)O[C@H]2[C@H]1CC/C(COC(=O)CCC(=O)N1CCC(C)CC1)=C\CC[C@@]1(C)O[C@@H]21 [JVM 2-70]	greater than 50%

Same assay, conditions: M9 cell lines

SMILES	Fold greater cytotoxicity than PTL [fold]
C=C1C(=O)O[C@H]2[C@H]1CC/C(COC(=O)c1ccc3ccccc3c1)=C\CC[C@@]1(C)O[C@@H]21 [JVM 3-36, ((1aR,7aS,10aS,10bS,E)-1a-methyl-8-methylene-9-oxo-1a,2,3,6,7,7a,8,9,10a,10b-decahydrooxireno[2′,3′:9,10]cycodeca[1,2-b]furan-5-yl)methyl 2-naphthoate]	3
C=C1C(=O)O[C@H]2[C@H]1CC/C(C(=O)Nc1n[nH]c(SC)n1)=C\CC[C@@]1(C)O[C@@H]21 [JVM 3-53, (1aR,7aS,10aS,10bS,E)-1a-methyl-8-methylene-N-(5-(methylthio)-1H-1,2,4-triazol-3-yl)-9-oxo-1a,2,3,6,7,7a,8,9,10a,10b-decahydrooxireno[2′,3′:9,10]cyclodeca[1,2-b]furan-5-carboxamide]	~30

Test system: panel of 60 human cancer cell lines
Experiment: Screen against a panel of 60 human tumor cell lines (single dose and five dose), panel and sub-panel statements
Format: cell-based
Details: all human tumor cell lines, with the exception of the leukemia cell line subpanel

SMILES	Growth inhibition compared to PTL (1) and DMAPT (2)
C=C1C(=O)O[C@H]2[C@H]1CC/C(COC(=O)N1CCC(F)(F)CC1)=C\CC[C@@]1(C)O[C@@H]21 [Compound 6a, ((1aR,7aS,10aS,10bS,E)-1a-methyl-8-methylene-9-oxo-1a,2,3,6,7,7a,8,9,10a,10b-decahydrooxireno[2′,3′:9,10]cyclodeca[1,2-b]furan-5-yl)methyl-4,4-difluoropiperidine-1-carboxylate]	generally exhibited improved growth inhibition against all human tumor cell lines when compared to PTL (1) and DMAPT (2)
C=C1C(=O)O[C@H]2[C@H]1CC/C(COC(=O)Nc1n[nH]c(SC)n1)=C\CC[C@@]1(C)O[C@@H]21 [Compound 6e, ((1aR,7aS,10aS,10bS,E)-1a-methyl-8-methylene-9-oxo-1a,2,3,6,7,7a,8,9,10a,10b-decahydrooxireno[2′,3′:9,10]cyclodeca[1,2-b]furan-5-yl)methyl-(5-(methylthio)-1H-1,2,4-triazol-3-yl)carbamate]	generally exhibited improved growth inhibition against all human tumor cell lines when compared to PTL (1) and DMAPT (2)

Same assay, conditions: single concentration 10^−5 M; more than 60% growth inhibition in at least eight cell lines of the panel

SMILES	Outcome of initial single dose screening
C=C1C(=O)O[C@H]2[C@H]1CC/C(COC(=O)c1cc3cc(OC)ccc3[nH]1)=C\CC[C@@]1(C)O[C@@H]21 [BS-2-01]	selected for five dose screening
C=C1C(=O)OC2C1CCC(COC(=O)c1cc3cc(Cl)ccc3[nH]1)=CCCC1(C)OC21 (stereo not drawn) [BS-2-30]	selected for five dose screening
C=C1C(=O)OC2C1CCC(COC(=O)c1cc3ccccc3s1)=CCCC1(C)OC21 (stereo not drawn) [BS-2-65]	selected for five dose screening
C=C1C(=O)OC2C1CCC(COC(=O)c1cc3cc(F)ccc3[nH]1)=CCCC1(C)OC21 (stereo not drawn) [BS-2-68]	selected for five dose screening
C=C1C(=O)O[C@H]2[C@H]1CC/C(COC(=O)NCCN1CCCC1)=C\CC[C@@]1(C)O[C@@H]21 [Compound 6b, ((1aR,7aS,10aS,10bS,E)-1a-methyl-8-methylene-9-oxo-1a,2,3,6,7,7a,8,9,10a,10b-decahydrooxireno[2′,3′:9,10]cyclodeca[1,2-b]furan-5-yl)methyl-(2-(pyrrolidin-1-yl)ethyl)carbamate]	selected for a five-dose screening
C=C1C(=O)O[C@H]2[C@H]1CC/C(COC(=O)NCCc1ccccn1)=C\CC[C@@]1(C)O[C@@H]21 [Compound 6c, ((1aR,7aS,10aS,10bS,E)-1a-methyl-8-methylene-9-oxo-1a,2,3,6,7,7a,8,9,10a,10b-decahydrooxireno[2′,3′:9,10]cyclodeca[1,2-b]furan-5-yl)methyl-(2-(pyridin-2-yl)ethyl)carbamate]	selected for a five-dose screening
C=C1C(=O)O[C@H]2[C@H]1CC/C(COC(=O)NCCN1CCOCC1)=C\CC[C@@]1(C)O[C@@H]21 [Compound 6d, ((1aR,7aS,10aS,10bS,E)-1a-methyl-8-methylene-9-oxo-1a,2,3,6,7,7a,8,9,10a,10b-decahydrooxireno[2′,3′:9,10]cyclodeca[1,2-b]furan-5-yl)-methyl(2-morpholinoethyl) carbamate]	selected for a five-dose screening
C=C1C(=O)O[C@H]2[C@H]1CC/C(COC(=O)Nc1n[nH]c(SC)n1)=C\CC[C@@]1(C)O[C@@H]21 [Compound 6e, ((1aR,7aS,10aS,10bS,E)-1a-methyl-8-methylene-9-oxo-1a,2,3,6,7,7a,8,9,10a,10b-decahydrooxireno[2′,3′:9,10]cyclodeca[1,2-b]furan-5-yl)methyl-(5-(methylthio)-1H-1,2,4-triazol-3-yl)carbamate]	selected for a five-dose screening
C=C1C(=O)O[C@H]2[C@H]1CC/C(COC(=O)NCCN1CCCCC1)=C\CC[C@@]1(C)O[C@@H]21 [JVM 2-13]	selected for a five-dose screening
C=C1C(=O)O[C@H]2[C@H]1CC/C(COC(=O)OCCCN1CCCCC1)=C\CC[C@@]1(C)O[C@@H]21 [JVM 2-26]	selected for a five-dose screening
C=C1C(=O)O[C@H]2[C@H]1CC/C(COC(=O)NCCCCCCO)=C\CC[C@@]1(C)O[C@@H]21 [JVM 2-31]	selected for a five-dose screening
C=C1C(=O)O[C@H]2[C@H]1CC/C(COC(=O)OCCN(C)C)=C\CC[C@@]1(C)O[C@@H]21 [JVM 2-35]	selected for a five-dose screening
C=C1C(=O)O[C@H]2[C@H]1CC/C(COC(=O)OC)=C\CC[C@@]1(C)O[C@@H]21 [JVM 2-40]	selected for a five-dose screening
C=C1C(=O)O[C@H]2[C@H]1CC/C(COC(=O)N1CCN(C)CC1)=C\CC[C@@]1(C)O[C@@H]21 [JVM 2-44]	selected for a five-dose screening
C=C1C(=O)O[C@H]2[C@H]1CC/C(COC(=O)NCCO)=C\CC[C@@]1(C)O[C@@H]21 [JVM 2-50]	selected for a five-dose screening
C=C1C(=O)O[C@H]2[C@H]1CC/C(COC(=O)NC)=C\CC[C@@]1(C)O[C@@H]21 [JVM 2-57]	selected for a five-dose screening
C=C1C(=O)O[C@H]2[C@H]1CC/C(COC(=O)N1CCC(F)(F)CC1)=C\CC[C@@]1(C)O[C@@H]21 [JVM 2-66]	selected for a five-dose screening
C=C1C(=O)O[C@H]2[C@H]1CC/C(COC(=O)CCC(=O)N1CCC(C)CC1)=C\CC[C@@]1(C)O[C@@H]21 [JVM 2-70]	selected for a five-dose screening
C=C1C(=O)O[C@H]2[C@H]1CC/C(COC(=S)n1ccnc1)=C\CC[C@@]1(C)O[C@@H]21 [JVM 66]	selected for a five-dose screening
C=C1C(=O)O[C@H]2[C@H]1CC/C(COC(=O)CCC(=O)NCc1ccc(Cl)nc1)=C\CC[C@@]1(C)O[C@@H]21 [JVM 96]	selected for a five-dose screening

Same assay, conditions: single concentration of 10^−5 M

SMILES	Activity in NCI single dose screen
C=C1C(=O)O[C@H]2[C@H]1CC/C(CNC(=O)Cc1c[nH]c3ccccc13)=C\CC[C@@]1(C)O[C@@H]21 [JVM 4-14]	potent activity against all leukemia lines tested as well as some NSCLC, colon cancer, melanoma, renal cancer and breast cancer cell lines; also recorded: moderate activity against CNS cancer and ovarian cancer
C=C1C(=O)O[C@H]2[C@H]1CC/C(CNC(=O)c1cc3ccccc3[nH]1)=C\CC[C@@]1(C)O[C@@H]21 [JVM 4-19]	did not show potent activity against leukemia cell lines; also recorded: potent activity against the majority of colon cancer, melanoma, renal cancer, prostate cancer and breast cancer cell lines tested; also recorded: moderate activity against NSCLC, CNS cancer and ovarian cancer cell lines

Same assay, conditions: sub-panel of human leukemia cells

SMILES	Antileukemic activity compared to parent compound MMB
C=C1C(=O)O[C@H]2[C@H]1CC/C(COC(=O)N1CCC(F)(F)CC1)=C\CC[C@@]1(C)O[C@@H]21 [Compound 6a, ((1aR,7aS,10aS,10bS,E)-1a-methyl-8-methylene-9-oxo-1a,2,3,6,7,7a,8,9,10a,10b-decahydrooxireno[2′,3′:9,10]cyclodeca[1,2-b]furan-5-yl)methyl-4,4-difluoropiperidine-1-carboxylate]	more potent than the parent compound
C=C1C(=O)O[C@H]2[C@H]1CC/C(COC(=O)Nc1n[nH]c(SC)n1)=C\CC[C@@]1(C)O[C@@H]21 [Compound 6e, ((1aR,7aS,10aS,10bS,E)-1a-methyl-8-methylene-9-oxo-1a,2,3,6,7,7a,8,9,10a,10b-decahydrooxireno[2′,3′:9,10]cyclodeca[1,2-b]furan-5-yl)methyl-(5-(methylthio)-1H-1,2,4-triazol-3-yl)carbamate]	more potent than the parent compound

Source: patent US9920063B2, “Melampomagnolide B derivatives” (Board of Trustees of the University of Arkansas, priority 2013, dated 2018)
